Target: T1, human farnesyl transferase (Homo sapiens, UniProt P49354+P49356)
T1 construct: human farnesyl transferase purified from THP1 cell cultures; endogenous in cells; host or cells: THP1 cell cultures (enzyme purified from the cells)
Assay: inhibition of farnesyl transferase ((3H) farnesyl transfer from (3H) FPP to p21 H-ras)
Format: biochemical
Conditions: human farnesyl transferase purified from THP1 cell cultures; p21 H-ras substrate; 20 minutes at 37° C.; 9 concentrations; read-out: in vitro inhibitory activity IC50
Summary of the method: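 Radiometric transfer of [3H]farnesyl from 4.5 pmol [3H]FPP to 200 pmol p21 H-ras by ~5 ng human enzyme purified from THP1 cells, in 50 mM Tris-HCl, 5 mM MgCl2, 5 mM DTT, 0.2% octyl glucoside, 20 min at 37 °C. Protein precipitated with SDS/TCA in methanol, filter-bound counts measured; IC50 from 9 concentrations, triplicate.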

IC50	Structure (SMILES)
0.44 µM	COc1ccccc1CC(=O)N1CC2C3(c4ccccc4)CCC(c4ccccc43)C2(C(=O)N[C@@H](CSCc2ccccc2)C(=O)O)C1 (stereo partly drawn) [Example 52, N-[(3aRS,4SR,9SR,9aRS)-4,9-ethano-2-(2-methoxyphenyl)acetyl-9-phenyl-2,3,3a,4,9,9a-hexahydro-1H-benzo[f]isoindol-3a-yl]carbonyl-S-benzyl-L-cysteine]
0.5 µM	C=C(C(=O)N1C[C@H]2[C@@]3(c4ccccc4)CC[C@H](c4ccccc43)[C@@]2(C(=O)NCc2ccccc2)C1)c1ccccc1OC [Example 71]
